# In US20060008512A1, “Composition and methods for improved animal performance” (priority 2004, published 2006):
# Read-outs that look alike come from different tables or passages of the source.
# Tested on: Hy-Line W-36 White Leghorn hens
# Conditions: for Egg Shell, % (washed, dried): 10 mg/kg of feed, 6 & 10 d rooms combined
# Protocol: Experiment 2. […] The photoperiod was 17 hours of light per day (0330 hours to 2030 hours).
# The objective was to use T4 to humanely induce molting in hens that are continuously provided with ad libitum access to palatable feed meeting or exceeding all National Research Council (1994) standards. Developing a fully efficacious yet affordable molting protocol was predicated on determining the minimum effective level for T4 supplementation. Factors that potentially may affect the required level of T4 supplementation include: (1) uncertainty regarding the efficiency of T4 absorption by the gastrointestinal tract, (2) the possibility that continuous dietary ingestion of T4 could trigger substantially different biological responses when compared single daily injections, and (3) the likelihood that daily T4 intake would diminish in parallel with molt-related reductions in feed intake associated with cessation in egg production. A spontaneous and voluntary loss of appetite (anorexia) commonly accompanies seasonal molting and broodiness in a variety of avian species (Berry, 2003; Webster, 2003). Accordingly, the responses of hens to diets containing 10, 20, and 40 mg T4/kg, to bracket the anticipated range of T4 needed to cause an effective molt, were determined.
# [1] = 10 mg/kg of feed 6 d from day 5, Day 7
# [2] = 10 mg/kg of feed 6 d from day 5, Day 10
# [3] = 10 mg/kg of feed 6 d from day 5, Day 14
# [4] = 10 mg/kg of feed 6 d from day 5, Day 30
# [5] = 10 mg/kg of feed 10 d from day 5, Day 7
# [6] = 10 mg/kg of feed 10 d from day 5, Day 10
# [7] = 10 mg/kg of feed 10 d from day 5, Day 14
# [8] = 10 mg/kg of feed 10 d from day 5, Day 30
# [9] = 20 mg/kg of feed 6 d from day 5, Day 7
# [10] = 20 mg/kg of feed 6 d from day 5, Day 10
# [11] = 20 mg/kg of feed 6 d from day 5, Day 14
# [12] = 20 mg/kg of feed 6 d from day 5, Day 30
smiles,measurement,setting,value
"N[C@@H](Cc1cc(I)c(Oc2cc(I)c(O)c(I)c2)c(I)c1)C(=O)O [L-thyroxine, 3,5,3′,5′-tetraiodo-L-thyronine]",Onset of molt after T4 feeding was initiated,"10 mg T4/kg, 10 days on test diets, half of the hens",11 days
same,Body weight (BW),"10 mg/kg of feed 6 d from day 5, Day 1",1501 g
same,Body weight (BW),[1],1377 g
same,Body weight change from day 1 (% BWC),[1],−8.3%
same,Body weight (BW),[2],1293 g
same,Body weight change from day 1 (% BWC),[2],−13.9%
same,Body weight (BW),[3],1424 g
same,Body weight change from day 1 (% BWC),[3],−5.1%
same,Body weight (BW),[4],1483 g
same,Body weight change from day 1 (% BWC),[4],−1.2%
same,Hen-day egg production,"10 mg/kg of feed 6 d from day 5, day 4",75%
same,Hen-day egg production,"10 mg/kg of feed 6 d from day 5, day 6",58%
same,Hen-day egg production,"10 mg/kg of feed 6 d from day 5, day 8",25%
same,Hen-day egg production,"10 mg/kg of feed 6 d from day 5, day 10",8%
same,Hen-day egg production,"10 mg/kg of feed 6 d from day 5, day 12",17%
same,Hen-day egg production,"10 mg/kg of feed 6 d from day 5, day 14",0%
same,Hen-day egg production,"10 mg/kg of feed 6 d from day 5, day 16",33%
same,Hen-day egg production,"10 mg/kg of feed 6 d from day 5, day 18",25%
same,Hen-day egg production,"10 mg/kg of feed 6 d from day 5, day 20",58%
same,Hen-day egg production,"10 mg/kg of feed 6 d from day 5, day 22",75%
same,Hen-day egg production,"10 mg/kg of feed 6 d from day 5, day 24",83%
same,Hen-day egg production,"10 mg/kg of feed 6 d from day 5, day 26",42%
same,Hen-day egg production,"10 mg/kg of feed 6 d from day 5, day 28",83%
same,Hen-day egg production,"10 mg/kg of feed 6 d from day 5, day 30",75%
same,Body weight (BW),"10 mg/kg of feed 10 d from day 5, Day 1",1477 g
same,Body weight (BW),[5],1372 g
same,Body weight change from day 1 (% BWC),[5],−7.1%
same,Body weight (BW),[6],1335 g
same,Body weight change from day 1 (% BWC),[6],−9.6%
same,Body weight (BW),[7],1314 g
same,Body weight change from day 1 (% BWC),[7],−11.0%
same,Body weight (BW),[8],1400 g
same,Body weight change from day 1 (% BWC),[8],−5.2%
same,Hen-day egg production,"10 mg/kg of feed 10 d from day 5, day 4",58%
same,Hen-day egg production,"10 mg/kg of feed 10 d from day 5, day 6",50%
same,Hen-day egg production,"10 mg/kg of feed 10 d from day 5, day 8",42%
same,Hen-day egg production,"10 mg/kg of feed 10 d from day 5, day 10",17%
same,Hen-day egg production,"10 mg/kg of feed 10 d from day 5, day 12",17%
same,Hen-day egg production,"10 mg/kg of feed 10 d from day 5, day 14",17%
same,Hen-day egg production,"10 mg/kg of feed 10 d from day 5, day 16",17%
same,Hen-day egg production,"10 mg/kg of feed 10 d from day 5, day 18",25%
same,Hen-day egg production,"10 mg/kg of feed 10 d from day 5, day 22",33%
same,Hen-day egg production,"10 mg/kg of feed 10 d from day 5, day 24",50%
same,Hen-day egg production,"10 mg/kg of feed 10 d from day 5, day 26",25%
same,Hen-day egg production,"10 mg/kg of feed 10 d from day 5, day 28",25%
same,Hen-day egg production,"10 mg/kg of feed 10 d from day 5, day 30",33%
same,"Egg Shell, % (washed, dried)",Days 2 to 4,7.93 (n = 6) %
same,"Egg Shell, % (washed, dried)",Days 5 to 6,7.39 (n = 9) %
same,"Egg Shell, % (washed, dried)",Days 7 to 8,6.63 (n = 8) %
same,Body weight (BW),"20 mg/kg of feed 6 d from day 5, Day 1",1582 g
same,Body weight (BW),[9],1434 g
same,Body weight change from day 1 (% BWC),[9],−9.4%
same,Body weight (BW),[10],1373 g
same,Body weight change from day 1 (% BWC),[10],−13.2%
same,Body weight (BW),[11],1491 g
same,Body weight change from day 1 (% BWC),[11],−3.9%
same,Body weight (BW),[12],1521 g
same,Body weight change from day 1 (% BWC),[12],−3.9%
same,Hen-day egg production,"20 mg/kg of feed 6 d from day 5, day 4",94%
same,Hen-day egg production,"20 mg/kg of feed 6 d from day 5, day 6",69%
same,Hen-day egg production,"20 mg/kg of feed 6 d from day 5, day 8",17%
same,Hen-day egg production,"20 mg/kg of feed 6 d from day 5, day 10",0%
same,Hen-day egg production,"20 mg/kg of feed 6 d from day 5, day 12",17%
same,Hen-day egg production,"20 mg/kg of feed 6 d from day 5, day 14",14%
same,Hen-day egg production,"20 mg/kg of feed 6 d from day 5, day 16",33%
same,Hen-day egg production,"20 mg/kg of feed 6 d from day 5, day 18",39%
same,Hen-day egg production,"20 mg/kg of feed 6 d from day 5, day 20",47%
same,Hen-day egg production,"20 mg/kg of feed 6 d from day 5, day 22",64%
same,Hen-day egg production,"20 mg/kg of feed 6 d from day 5, day 24",64%
same,Hen-day egg production,"20 mg/kg of feed 6 d from day 5, day 26",78%
